Experimental data reported in patent publication US20040132619A1, “Selective substituted aryl ketone and safener based herbicides” (priority 2001, published 2004).

Tests used:
[1] = logP (physical data, Table 1); type: physicochemical; details: footnote a) not given
[2] = tested on: barley cv. “Coronar”; experiment: Post-emergence test/greenhouse, damage to barley; type: in vivo
Description: (§1) The active compound or safener components are in each case dissolved in a little solvent and then—if appropriate after addition of an emulsifier—diluted with water to the desired concentration. […] Acetone and N,N-dimethylformamide are used as preferred solvents. The test plants are grown under controlled conditions (temperature, light, atmospheric humidity) in a greenhouse. […] After spraying, the pots with the test plants are kept in a greenhouse chamber under controlled conditions (temperature, light, atmospheric humidity) until the test has ended. […] The figures denote: 0% =no damage (like untreated control) […] Active compounds, application rates, test plants and results are shown in the tables below, the terms being used in the tables being as defined below: wheat=wheat cv. “Orestis”, barley=barley cv. “Coronar” a.i.=active ingredient=active compound/safener

[3] = tested on: wheat cv. “Orestis”; experiment: Post-emergence test/greenhouse, damage to wheat; type: in vivo
Description: as §1

[4] = tested on: Amaranthus; experiment: Post-emergence test/greenhouse, damage to Amaranthus; type: in vivo; details: Table A3
Description: (§2) The active compound or safener components are in each case dissolved in a little solvent and then—if appropriate after addition of an emulsifier—diluted with water to the desired concentration. Preferably, an aqueous spray liquor is prepared using 0.1% of the additive Renex-36. Acetone and N,N-dimethylformamide are used as preferred solvents.
(§3) The test plants are grown under controlled conditions (temperature, light, atmospheric humidity) in a greenhouse. The test plants are sprayed when they have reached a height of 5-15 cm. The concentration of the spray liquor is chosen such that the particular amounts of active compound desired are applied in 500 l of water/ha.
(§4) After spraying, the pots with the test plants are kept in a greenhouse chamber under controlled conditions (temperature, light, atmospheric humidity) until the test has ended. About three weeks after the application, the degree of damage to the crop plants is rated in % damage in comparison to the development of the untreated control.
(§5) 0% =no damage (like untreated control)
(§6) 100% =total destruction/damage
(§7) Active compounds, application rates, test plants and results are shown in the tables below, the terms being used in the tables being as defined below:
(§8) a.i.=active ingredient=active compound/safener

[5] = tested on: Chenopodium; experiment: Post-emergence test/greenhouse, damage to Chenopodium; type: in vivo; details: Table A3
Description: as §2, §3, §4, §5, §6, §7, §8

[6] = tested on: maize cv. “Pioneer”; experiment: Post-emergence test/greenhouse, damage to maize; type: in vivo; details: Table A3
Description: as §2, §3, §4, §5, §6, §7
maize=maize cv. “Pioneer”
as §8

[7] = Table A1: sown 31 March, application 19 April (20 days), 125 g of a.i./ha
[8] = Table A1: sown 31 March, application 19 April (20 days), 250 g of a.i./ha
[9] = Table A1: sown 31 March, application 19 April (20 days), 500 g of a.i./ha
[10] = Table A2: sown 12 April, application 10 May (4 weeks), 125 g of a.i./ha
[11] = Table A2: sown 12 April, application 10 May (4 weeks), 250 g of a.i./ha
[12] = Table A2: sown 12 April, application 10 May (4 weeks), 500 g of a.i./ha

SMILES: CSc1nn(Cc2cc(C(F)(F)F)ccc2C(=O)C2C(=O)CCCC2=O)c(=O)n1C [Example I-15]
- logP [1]: logP = 2.59^a)
- Damage Barley (in %) (5 days) [2, 7]: 40%
- Damage Barley (in %) (20 days) [2, 7]: 10%
- Damage Barley (in %) (5 days) [2, 8]: 50%
- Damage Barley (in %) (20 days) [2, 8]: 15%
- Damage Barley (in %) (5 days) [2, 9]: 50%
- Damage Barley (in %) (20 days) [2, 9]: 20%
- Damage Barley (in %) (5 days) [2, 10]: 35%
- Damage Barley (in %) (20 days) [2, 10]: 25%
- Damage Barley (in %) (5 days) [2, 11]: 35%
- Damage Barley (in %) (20 days) [2, 11]: 30%
- Damage Barley (in %) (5 days) [2, 12]: 35%
- Damage Barley (in %) (20 days) [2, 12]: 50%
- Damage Wheat (in %) (5 days) [3, 7]: 30%
- Damage Wheat (in %) (20 days) [3, 7]: 20%
- Damage Wheat (in %) (5 days) [3, 8]: 40%
- Damage Wheat (in %) (20 days) [3, 8]: 20%
- Damage Wheat (in %) (5 days) [3, 9]: 40%
- Damage Wheat (in %) (20 days) [3, 9]: 30%
- Damage Wheat (in %) (5 days) [3, 10]: 20%
- Damage Wheat (in %) (20 days) [3, 10]: 30%
- Damage Wheat (in %) (5 days) [3, 11]: 35%
- Damage Wheat (in %) (20 days) [3, 11]: 40%
- Damage Wheat (in %) (5 days) [3, 12]: 35%
- Damage Wheat (in %) (20 days) [3, 12]: 50%

SMILES: COc1c(C(=O)c2cnoc2C2CC2)ccc(Cl)c1CN1CCN(C)C1=O [Example I-14]
- logP [1]: logP = 2.46^a)

SMILES: CCN1CCCN(Cc2c(S(C)(=O)=O)ccc(C(=O)C3C(=O)CCCC3=O)c2Cl)C1=O [Example I-12]
- logP [1]: logP = 1.96^a)

SMILES: CN1CCCN(Cc2c(S(C)(=O)=O)ccc(C(=O)C3C(=O)CCCC3=O)c2Cl)C1=O [Example I-11]
- logP [1]: logP = 1.73^a)

SMILES: COc1nn(Cc2cc(C(F)(F)F)ccc2C(=O)C2C(=O)CCCC2=O)c(=O)n1C [Example I-5]
- Damage Amaranthus (in %) ([4]; 30 g of a.i./ha): 100%
- Damage Amaranthus (in %) ([4]; 60 g of a.i./ha): 100%
- Damage Amaranthus (in %) ([4]; 125 g of a.i./ha): 100%
- Damage Chenopodium (in %) ([5]; 30 g of a.i./ha): 100%
- Damage Chenopodium (in %) ([5]; 60 g of a.i./ha): 100%
- Damage Chenopodium (in %) ([5]; 125 g of a.i./ha): 100%
- logP [1]: logP = 2.35^a)
- Damage Maize (in %) ([6]; 30 g of a.i./ha): 30%
- Damage Maize (in %) ([6]; 60 g of a.i./ha): 60%
- Damage Maize (in %) ([6]; 125 g of a.i./ha): 70%
